Measurements taken from patent publication US6380215B1, “Beta-alanine derivative and a process for the preparation thereof” (Fujisawa Pharmaceutical Co., Ltd, priority 1993, dated 2002).

test system: platelets in platelet rich plasma (PRP), aggregation induced by ADP; assay: Effect on Platelet Aggregation Induced by Adenosine Diphosphate (ADP); format: cell-based; details: dose required for complete inhibition of platelet aggregation; human PRP 3×10^8 platelets/ml, ADP final 2.5 μM, 37° C., aggregometer
Description: Test 1: Effect on Platelet Aggregation Induced by Adenosine Diphosphate (ADP)
Platelet rich plasma (PRP) which contains 3×10^8 platelets/ml was prepared from human blood. To the 225 μl of PRP, 25 μl of drug solution* was added, and then stirred for 2 minutes at 37° C. To the solution 5 μl of ADP (final 2.5 μM) was added as an aggregation inducer. Aggregation was measured by using an aggregometer (NBS HEMA-TRACER 801). Activity of inhibitor (test compound) was expressed as IC100 value i.e. dose required for complete inhibition of platelet aggregation.
Drug solution* — — — Test compound was dissolved in water.

With Cl.O=C(O)CCNC(=O)[C@@H]1CCCN(C(=O)CCC2CCNCC2)C1 [Example 21 (3), N-[(R)-1-{3-(4-piperidyl)propionyl}-3-piperidylcarbonyl]-β-alanine hydrochloride] as the compound, how does the IC100 read?
Its IC100 is 1000 nM.

test system: not given; assay: not given; details: not given

With C[C@H](CC(=O)O)NC(=O)[C@@H]1CCCN(C(=O)CCC2CCNCC2)C1.Cl as the compound, how does the melting point read?
The melting point was 105 to 108 °C.

With COc1ccc(CCNC(=O)[C@H](CC(=O)O)NC(=O)[C@@H]2CCCN(C(=O)CCC3CCNCC3)C2)cc1.Cl as the compound, how does the melting point read?
Its melting point is 82 °C.

Which melting point does the source give for Cl.O=C(O)CC(NC(=O)[C@@H]1CCCN(C(=O)CCC2CCNCC2)C1)c1ccccc1 (some centres unmarked) here?
Its melting point is 67 °C.

For CCCCCC(=O)N[C@@H](CNC(=O)[C@@H]1CCCN(C(=O)CCC2CCNCC2)C1)C(=O)O.Cl, which melting point is on record?
The melting point was 156 to 157 °C.

For Cl.O=C(O)CCNC(=O)C1CCCN(C(=O)CCC2CCNCC2)C1 (centres unmarked), which melting point is on record?
The melting point was 70 to 72 °C.

Which melting point does the source give for Cl.O=C(O)CCNC(=O)C1CCN(C(=O)CCC2CCNCC2)CC1 here?
Its melting point is 63 to 65 °C.

Which melting point does the source give for Cl.O=C(O)CCNC(=O)CC1CCCN(C(=O)CC2CCNCC2)C1 (centres unmarked) here?
The melting point was 73 °C.

For Cl.O=C(O)CCNC(=O)CC1CCCN(C(=O)C=C2CCNCC2)C1 (centres unmarked), which melting point is on record?
Its melting point is 63 °C.

For C#C[C@H](CC(=O)OCc1oc(=O)oc1C)NC(=O)[C@@H]1CCCN(C(=O)CCC2CCNCC2)C1.Cl, which melting point is on record?
Its melting point is 70 °C.

Which melting point does the source give for COC(=O)CCNC(=O)C1CCN(C(=O)CCC2CCN(C(=O)OC(C)(C)C)CC2)CC1 here?
The melting point was 79 °C.

For COC(=O)CCNC(=O)CC1CCCN(C(=O)C=C2CCN(C(=O)OC(C)(C)C)CC2)C1 (centres unmarked), which melting point is on record?
Its melting point is 121 °C.

For COC(=O)C[C@H](N)C(=O)NC1CCCN(C(=O)CCC2CCN(C(=O)OCc3ccccc3)CC2)C1.Cl (some centres unmarked), which melting point is on record?
The melting point was 75 °C.

With Cl.O=C(O)CCNC(=O)[C@@H]1CCCN(C(=O)CCC2CCNCC2)C1 [Example 21 (3), N-[(R)-1-{3-(4-piperidyl)propionyl}-3-piperidylcarbonyl]-β-alanine hydrochloride] as the compound, how does the melting point read?
Its melting point is 84 °C.
